Measured values reported in PubChem BioAssay (NCI).
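Growth conditions: 96-well plates. Treatment: test compound, 48 hours, 5 concentrations. Analysis: linear interpolation between bracketing concentrations; unreached endpoints set to highest concentration. At the GI50, growth is halved. The concentration for full growth arrest is given as TGI.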

Tests used:
Assay in all cases: NCI anticancer screen, dose series, 48 h
[1] = tested on: SR leukemia
[2] = tested on: KM12 colon
[3] = tested on: PC-3 prostate
[4] = tested on: SK-MEL-5 melanoma
[5] = tested on: SK-OV-3 ovarian
[6] = tested on: 786-0 renal
[7] = tested on: MALME-3M melanoma
[8] = tested on: A549 NSCLC
[9] = tested on: HL-60(TB) leukemia
[10] = tested on: SNB-75 CNS
[11] = tested on: OVCAR-5 ovarian
[12] = tested on: TK-10 renal
[13] = tested on: UACC-257 melanoma
[14] = tested on: NCI/ADR-RES ovarian
[15] = tested on: UACC-62 melanoma
[16] = tested on: OVCAR-8 ovarian
[17] = tested on: SF-295 CNS
[18] = tested on: SN12C renal
[19] = tested on: EKVX NSCLC
[20] = tested on: A498 renal
[21] = tested on: SF-539 CNS
[22] = tested on: HCT-116 colon
[23] = tested on: DU-145 prostate
[24] = tested on: SW-620 colon
[25] = tested on: U251 CNS
[26] = tested on: K-562 leukemia
[27] = tested on: ACHN renal
[28] = tested on: SNB-19 CNS
[29] = tested on: COLO 205 colon
[30] = tested on: HOP-62 NSCLC
[31] = tested on: HOP-92 NSCLC
[32] = tested on: MOLT-4 leukemia
[33] = tested on: BT-549 breast
[34] = tested on: CCRF-CEM leukemia
[35] = tested on: NCI-H522 lung
[36] = tested on: OVCAR-4 ovarian
[37] = tested on: SF-268 CNS
[38] = tested on: HCT-15 colon
[39] = tested on: CAKI-1 renal
[40] = tested on: RXF 393 renal
[41] = tested on: HS 578T breast
[42] = tested on: NCI-H226 lung
[43] = tested on: NCI-H460 lung
[44] = tested on: HCC-2998 colon
[45] = tested on: MDA-MB-231 breast
[46] = tested on: IGROV1 ovarian
[47] = tested on: SK-MEL-28 melanoma
[48] = tested on: RPMI-8226 leukemia
[49] = tested on: HT29 colon
[50] = tested on: M14 melanoma
[51] = tested on: OVCAR-3 ovarian
[52] = tested on: LOX IMVI melanoma
[53] = tested on: UO-31 renal
[54] = tested on: T-47D breast
[55] = tested on: SK-MEL-2 melanoma
[56] = tested on: MCF7 breast
[57] = tested on: NCI-H23 lung
[58] = tested on: MDA-MB-435

SMILES: CC1(C)CC(=O)c2c(ccc(C(=O)C[C@@H](N)CO)c2N)O1
- GI50 [1]: 0.15 µM
- GI50 [2]: 0.297 µM
- TGI [2]: > 91.7 µM
- GI50 [3]: 2.1 µM
- TGI [3]: > 100 µM
- GI50 [4]: 1.37 µM
- TGI [4]: > 43.9 µM
- GI50 [5]: 7.32 µM
- TGI [5]: > 100 µM
- GI50 [6]: 11.9 µM
- TGI [6]: > 61.4 µM
- GI50 [7]: 12.5 µM
- TGI [7]: > 76.9 µM
- GI50 [8]: 1.42 µM
- TGI [8]: > 100 µM
- GI50 [9]: 4.03 µM
- TGI [9]: > 63.7 µM
- GI50 [10]: 17.7 µM
- TGI [10]: > 100 µM
- GI50 [11]: 22.8 µM
- TGI [11]: > 100 µM
- GI50 [12]: 9.41 µM
- TGI [12]: 46.8 µM
- GI50 [13]: 3.25 µM
- TGI [13]: 47.8 µM
- GI50 [14]: 2.55 µM
- TGI [14]: > 100 µM
- GI50 [15]: 0.333 µM
- TGI [15]: 3.61 µM
- GI50 [16]: 1.08 µM
- TGI [16]: > 69.6 µM
- GI50 [17]: 1.29 µM
- TGI [17]: > 54.9 µM
- GI50 [18]: 0.788 µM
- TGI [18]: > 100 µM
- GI50 [19]: 19 µM
- TGI [19]: > 100 µM
- GI50 [20]: 0.921 µM
- TGI [20]: 27.7 µM
- GI50 [21]: 0.399 µM
- TGI [21]: 5.22 µM
- GI50 [22]: 0.347 µM
- TGI [22]: > 100 µM
- GI50 [23]: 0.849 µM
- TGI [23]: > 93.1 µM
- GI50 [24]: 0.234 µM
- TGI [24]: 12.7 µM
- GI50 [25]: 0.328 µM
- TGI [25]: > 100 µM
- GI50 [26]: 0.531 µM
- TGI [26]: > 100 µM
- GI50 [27]: 1.25 µM
- TGI [27]: > 100 µM
- GI50 [28]: 0.749 µM
- TGI [28]: > 100 µM
- GI50 [29]: 1.05 µM
- TGI [29]: > 37.3 µM
- GI50 [30]: 0.643 µM
- TGI [30]: > 49.1 µM
- GI50 [31]: 6.28 µM
- TGI [31]: > 69.3 µM
- GI50 [32]: 0.349 µM
- TGI [32]: > 37.4 µM
- GI50 [33]: 1.12 µM
- TGI [33]: 11.9 µM
- GI50 [34]: 0.556 µM
- TGI [34]: > 60.2 µM
- GI50 [35]: 0.919 µM
- TGI [35]: 15.3 µM
- GI50 [36]: 17.7 µM
- TGI [36]: > 100 µM
- GI50 [37]: 0.667 µM
- TGI [37]: > 89.5 µM
- GI50 [38]: 0.177 µM
- TGI [38]: 12.2 µM
- GI50 [39]: 0.564 µM
- TGI [39]: 23.7 µM
- GI50 [40]: 1.45 µM
- TGI [40]: 7.44 µM
- GI50 [41]: 20.6 µM
- TGI [41]: > 100 µM
- GI50 [42]: 0.871 µM
- TGI [42]: > 37.4 µM
- GI50 [43]: 0.166 µM
- TGI [43]: > 100 µM
- GI50 [44]: 0.371 µM
- TGI [44]: 4.63 µM
- GI50 [45]: 3.13 µM
- TGI [45]: > 100 µM
- GI50 [46]: 0.958 µM
- TGI [46]: > 100 µM
- GI50 [47]: 0.595 µM
- TGI [47]: 34.5 µM
- GI50 [48]: 1.56 µM
- TGI [48]: 21.4 µM
- GI50 [49]: 0.34 µM
- TGI [49]: > 91.1 µM
- GI50 [50]: 0.664 µM
- TGI [50]: 8.41 µM
- GI50 [51]: 0.431 µM
- TGI [51]: > 38.2 µM
- GI50 [52]: 0.0986 µM
- TGI [52]: 1.11 µM
- GI50 [53]: 1.1 µM
- TGI [53]: > 100 µM
- GI50 [54]: 4.56 µM
- TGI [54]: > 67.6 µM
- GI50 [55]: 1.04 µM
- TGI [55]: 9.33 µM
- GI50 [56]: 0.399 µM
- TGI [56]: > 52.5 µM
- GI50 [57]: 1.17 µM
- TGI [57]: > 100 µM
- GI50 [58]: 2.39 µM
- TGI [58]: > 100 µM
